Measurements reported in patent publication US20220400680A1, “USE OF ACYLCYANAMIDES OR SALTS THEREOF FOR REGULATING PLANT GROWTH” (Alzchem Trostberg GmbH, priority 2019, published 2022).

What was measured:
[1] = tested on: Table apple, type Boiken apple (C1); test: Greenhouse test, cut apple branches C1 dipped in test solution, bud development stage; assay type: in vivo, Malus domestica; parameters: key to Bud development stage, apple branches C1: Stage 0: Buds unchanged; Stage 1: Buds slightly swollen, first green tips visible; Stage 2: strongly swollen, green buds; Stage 3: Buds before breaking open, leaf or flower root already visible; Stage 4: Flower buds fully developed, but still closed, white petals already visible. In the case of the grapevine, stage 4 was the unfolding of the first leaves; Stage 5: Flowers fully open or, in the case of grapevine, unfolding of the flower roots (“Gescheine”) on the fully leafed sprouts; details: for Good to very good dormancy-breaking effect, apple C1: stage 4 reached or exceeded after 27 days vs negative control; for Dormancy-breaking effect according to the definition, apple C1: stage 4 reached or exceeded after 36 days vs negative control
How it was run: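 Cut Boiken apple branches kept in water jars in a greenhouse at about 22 °C under natural light and dipped in test solution. Solutions contained 0.15 mol test substance (0.075 mol for bis-cyanamides) plus 0.15 g BreakThru OE-446 per 500 g water. Bud development scored on a stage scale up to full flowering.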

[2] = tested on: Table apple, type Zabergäu-Renette (C2); test: Greenhouse test, cut apple branches C2 dipped in test solution, bud development stage; assay type: in vivo, Malus domestica; parameters: key to Bud development stage, apple branches C2: Stage 0: Buds unchanged; Stage 1: Buds slightly swollen, first green tips visible; Stage 2: strongly swollen, green buds; Stage 3: Buds before breaking open, leaf or flower root already visible; Stage 4: Flower buds fully developed, but still closed, white petals already visible. In the case of the grapevine, stage 4 was the unfolding of the first leaves; Stage 5: Flowers fully open or, in the case of grapevine, unfolding of the flower roots (“Gescheine”) on the fully leafed sprouts
How it was run: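 Cut branches held in water jars in a greenhouse at about 22° C. under natural light after dipping in aqueous test solution: 0.15 mol substance (0.075 mol for bis-cyanamides) plus 0.15 g BreakThru OE-446 per 500 g. Bud development scored on a stage scale from closed buds to fully open flowers.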

[3] = tested on: Table cherry, type Burlat (C3); test: Greenhouse test, cut cherry branches C3 dipped in test solution, bud development stage; assay type: in vivo, Prunus avium; parameters: key to Bud development stage, cherry branches C3: Stage 0: Buds unchanged; Stage 1: Buds slightly swollen, first green tips visible; Stage 2: strongly swollen, green buds; Stage 3: Buds before breaking open, leaf or flower root already visible; Stage 4: Flower buds fully developed, but still closed, white petals already visible. In the case of the grapevine, stage 4 was the unfolding of the first leaves; Stage 5: Flowers fully open or, in the case of grapevine, unfolding of the flower roots (“Gescheine”) on the fully leafed sprouts
How it was run: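 Cut branches kept in water jars in a greenhouse at about 22° C. under natural light after dipping in aqueous solution of 0.15 mol test substance (0.075 mol for bis-cyanamides) plus 0.15 g BreakThru OE-446 per 500 g. Bud development scored on a stage scale from closed buds to fully open flowers.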

[4] = tested on: Grape, type Pinot Noir (C4); test: Greenhouse test, cut wine sprouts C4 dipped in test solution, bud development stage; assay type: in vivo, Vitis vinifera subsp. vinifera; parameters: key to Bud development stage, wine sprouts C4: Stage 0: Buds unchanged; Stage 1: Buds slightly swollen, first green tips visible; Stage 2: strongly swollen, green buds; Stage 3: Buds before breaking open, leaf or flower root already visible; Stage 4: Flower buds fully developed, but still closed, white petals already visible. In the case of the grapevine, stage 4 was the unfolding of the first leaves; Stage 5: Flowers fully open or, in the case of grapevine, unfolding of the flower roots (“Gescheine”) on the fully leafed sprouts
How it was run: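 Cut Pinot Noir grapevine sprouts were dipped in aqueous test solution (0.15 mol test substance, or 0.075 mol for bis-cyanamides, plus 0.15 g BreakThru OE-446 per 500 g total) and kept in water jars at about 22° C under natural light. Bud development was scored on a staged scale from closed buds to fully open flowers.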

[5] = T1 (14 d), 0.15 mol (A-14, A-15: 0.075 mol) per 500 g solution
[6] = stage 4 reached or exceeded after 36 days vs negative control

CCC(=O)NC#N.[Na] [Example A-5, Sodium propionyl cyanamide]
Bud development stage, apple branches C1 [1, 5]: 2
Bud development stage, apple branches C1 ([1]; T2 (16 d)): 2
Bud development stage, apple branches C1 ([1]; T3 (21 d)): 4
Bud development stage, apple branches C1 ([1]; T4 (27 d)): 5
Bud development stage, apple branches C1 ([1]; T5 (36 d)): 5
Bud development stage, apple branches C1 ([1]; T6 (56 d)): 5
Good to very good dormancy-breaking effect, apple C1 [1]: good to very good dormancy-breaking effect
Dormancy-breaking effect according to the definition, apple C1 [1]: dormancy-breaking effect
Bud development stage, apple branches C2 [2, 5]: 0
Bud development stage, apple branches C2 ([2]; T2 (16 d)): 0
Bud development stage, apple branches C2 ([2]; T3 (21 d)): 0
Bud development stage, apple branches C2 ([2]; T4 (27 d)): 1
Bud development stage, apple branches C2 ([2]; T5 (36 d)): 3
Bud development stage, apple branches C2 ([2]; T6 (56 d)): 4
Bud development stage, cherry branches C3 [3, 5]: 1
Bud development stage, cherry branches C3 ([3]; T2 (16 d)): 2
Bud development stage, cherry branches C3 ([3]; T3 (21 d)): 4
Bud development stage, cherry branches C3 ([3]; T4 (27 d)): 4
Bud development stage, cherry branches C3 ([3]; T5 (36 d)): 4
Bud development stage, cherry branches C3 ([3]; T6 (56 d)): 5
Good to very good dormancy-breaking effect, cherry C3 ([3]; stage 4 reached or exceeded after 21 days vs negative control): good to very good dormancy-breaking effect
Dormancy-breaking effect according to the definition, cherry C3 ([3]; stage 4 reached or exceeded after 27 days vs negative control): dormancy-breaking effect
Bud development stage, wine sprouts C4 [4, 5]: 0
Bud development stage, wine sprouts C4 ([4]; T2 (16 d)): 0
Bud development stage, wine sprouts C4 ([4]; T3 (21 d)): 0
Bud development stage, wine sprouts C4 ([4]; T4 (27 d)): 1
Bud development stage, wine sprouts C4 ([4]; T5 (36 d)): 3
Bud development stage, wine sprouts C4 ([4]; T6 (56 d)): 5
melting point: 143 °C (dec.)

CC(C)C(=O)NC#N.[Na] [Example A-7, Sodium isobutyryl cyanamide]
Bud development stage, apple branches C1 [1, 5]: 2
Bud development stage, apple branches C1 ([1]; T2 (16 d)): 3
Bud development stage, apple branches C1 ([1]; T3 (21 d)): 4
Bud development stage, apple branches C1 ([1]; T4 (27 d)): 5
Bud development stage, apple branches C1 ([1]; T5 (36 d)): 5
Bud development stage, apple branches C1 ([1]; T6 (56 d)): 5
Good to very good dormancy-breaking effect, apple C1 [1]: good to very good dormancy-breaking effect
Dormancy-breaking effect according to the definition, apple C1 [1]: dormancy-breaking effect
Bud development stage, apple branches C2 [2, 5]: 0
Bud development stage, apple branches C2 ([2]; T2 (16 d)): 0
Bud development stage, apple branches C2 ([2]; T3 (21 d)): 1
Bud development stage, apple branches C2 ([2]; T4 (27 d)): 1
Bud development stage, apple branches C2 ([2]; T5 (36 d)): 5
Bud development stage, apple branches C2 ([2]; T6 (56 d)): 5
Dormancy-breaking effect according to the definition, apple C2 [2, 6]: dormancy-breaking effect
Bud development stage, cherry branches C3 [3, 5]: 0
Bud development stage, cherry branches C3 ([3]; T2 (16 d)): 0
Bud development stage, cherry branches C3 ([3]; T3 (21 d)): 1
Bud development stage, cherry branches C3 ([3]; T4 (27 d)): 2
Bud development stage, cherry branches C3 ([3]; T5 (36 d)): 4
Bud development stage, cherry branches C3 ([3]; T6 (56 d)): 5
Bud development stage, wine sprouts C4 [4, 5]: 0
Bud development stage, wine sprouts C4 ([4]; T2 (16 d)): 0
Bud development stage, wine sprouts C4 ([4]; T3 (21 d)): 0
Bud development stage, wine sprouts C4 ([4]; T4 (27 d)): 2
Bud development stage, wine sprouts C4 ([4]; T5 (36 d)): 5
Bud development stage, wine sprouts C4 ([4]; T6 (56 d)): 5
Dormancy-breaking effect according to the definition, wine C4 [4, 6]: dormancy-breaking effect
melting point: 127 to 133 °C

Cc1ccc(C(=O)NC#N)cc1.[Na] [Example A-13, Sodium-4-methyl-benzoyl-cyanamide]
Bud development stage, apple branches C1 [1, 5]: 0
Bud development stage, apple branches C1 ([1]; T2 (16 d)): 0
Bud development stage, apple branches C1 ([1]; T3 (21 d)): 0
Bud development stage, apple branches C1 ([1]; T4 (27 d)): 1
Bud development stage, apple branches C1 ([1]; T5 (36 d)): 4
Bud development stage, apple branches C1 ([1]; T6 (56 d)): 4
Dormancy-breaking effect according to the definition, apple C1 [1]: dormancy-breaking effect
Bud development stage, apple branches C2 [2, 5]: 0
Bud development stage, apple branches C2 ([2]; T2 (16 d)): 0
Bud development stage, apple branches C2 ([2]; T3 (21 d)): 1
Bud development stage, apple branches C2 ([2]; T4 (27 d)): 3
Bud development stage, apple branches C2 ([2]; T5 (36 d)): 3
Bud development stage, apple branches C2 ([2]; T6 (56 d)): 5
Bud development stage, cherry branches C3 [3, 5]: 0
Bud development stage, cherry branches C3 ([3]; T2 (16 d)): 0
Bud development stage, cherry branches C3 ([3]; T3 (21 d)): 0
Bud development stage, cherry branches C3 ([3]; T4 (27 d)): 1
Bud development stage, cherry branches C3 ([3]; T5 (36 d)): 2
Bud development stage, cherry branches C3 ([3]; T6 (56 d)): 5
Bud development stage, wine sprouts C4 [4, 5]: 0
Bud development stage, wine sprouts C4 ([4]; T2 (16 d)): 0
Bud development stage, wine sprouts C4 ([4]; T3 (21 d)): 0
Bud development stage, wine sprouts C4 ([4]; T4 (27 d)): 1
Bud development stage, wine sprouts C4 ([4]; T5 (36 d)): 3
Bud development stage, wine sprouts C4 ([4]; T6 (56 d)): 5
melting point: 340 °C (dec.)
